From ChEMBL document CHEMBL1201862, “PubChem BioAssay data set” (2004)
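A five-concentration, 48-hour dose response in 96-well plates underlies each endpoint, interpolated linearly between surrounding concentrations. Here, GI50 denotes the concentration required for 50% inhibition of growth.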 Calls of active or inactive are those of the source. Cut-off read from the data, not from the text of the source: active = GI50 up to about 1.1 µM and inactive = higher.

Assays:
Assay in all cases: DTP human tumour cell line panel, 48 h
RXF 393 = test system: RXF 393
SK-MEL-28 = test system: SK-MEL-28
SK-MEL-2 = test system: SK-MEL-2
OVCAR-5 = test system: OVCAR-5
SF-295 = test system: SF-295
HL-60 = test system: HL-60
HT-29 = test system: HT-29
786-0 = test system: 786-0
A498 = test system: A498
HCT-15 = test system: HCT-15
LOX IMVI = test system: LOX IMVI
SW-620 = test system: SW-620
OVCAR-4 = test system: OVCAR-4
COLO 205 = test system: COLO 205
NCI-H226 = test system: NCI-H226
M14 = test system: M14
OVCAR-8 = test system: OVCAR-8
MOLT-4 = test system: MOLT-4

| SMILES | GI50 (RXF 393) | GI50 (SK-MEL-28) | GI50 (SK-MEL-2) | GI50 (OVCAR-5) | GI50 (SF-295) | GI50 (HL-60) | GI50 (HT-29) | GI50 (786-0) | GI50 (A498) | GI50 (HCT-15) [µM] | GI50 (LOX IMVI) | GI50 (SW-620) | GI50 (OVCAR-4) | GI50 (COLO 205) | GI50 (NCI-H226) | GI50 (M14) | GI50 (OVCAR-8) | GI50 (MOLT-4) |
| --- | --- | --- | --- | --- | --- | --- | --- | --- | --- | --- | --- | --- | --- | --- | --- | --- | --- | --- |
| O=C(Nc1ccc(Cl)cc1Cl)C(=O)C(C(=O)c1ccc2ccccc2c1)C1OC(=O)c2ccccc21 (centres undefined) | 2.16 µM (inactive) | 3.48 µM (inactive) | 13.7 µM (inactive) | 4.65 µM (inactive) | 4.02 µM (inactive) | 2.96 µM (inactive) | 15.7 µM (inactive) | 5.97 µM (inactive) | 6.7 µM (inactive) | 11.5 | 5.19 µM (inactive) | 6.73 µM (inactive) | 10.1 µM (inactive) | 9.46 µM (inactive) | 1.73 µM (inactive) | 13.4 µM (inactive) | 6.34 µM (inactive) | – |
| Cn1cccc(C(=O)c2ccccc2)c1=O | > 100 µM (inactive) | > 100 µM (inactive) | > 100 µM (inactive) | > 100 µM (inactive) | > 100 µM (inactive) | > 100 µM (inactive) | > 100 µM (inactive) | > 100 µM (inactive) | – | > 100 | > 100 µM (inactive) | > 100 µM (inactive) | > 100 µM (inactive) | > 100 µM (inactive) | > 100 µM (inactive) | > 100 µM (inactive) | > 100 µM (inactive) | > 100 µM (inactive) |
| Cc1c(/C=N/NC(=O)c2ccc(Cl)cc2)c(=O)n(-c2ccccc2)n1C | > 100 µM (inactive) | > 100 µM (inactive) | > 100 µM (inactive) | – | > 100 µM (inactive) | > 100 µM (inactive) | > 100 µM (inactive) | > 100 µM (inactive) | – | > 100 | > 100 µM (inactive) | > 100 µM (inactive) | > 100 µM (inactive) | > 100 µM (inactive) | > 100 µM (inactive) | > 100 µM (inactive) | > 100 µM (inactive) | > 100 µM (inactive) |
| N#CCCC[Si]12OCCN(CCO1)CCO2 | > 100 µM (inactive) | > 100 µM (inactive) | > 100 µM (inactive) | > 100 µM (inactive) | > 100 µM (inactive) | > 100 µM (inactive) | > 100 µM (inactive) | > 100 µM (inactive) | > 100 µM (inactive) | – | – | > 100 µM (inactive) | – | > 100 µM (inactive) | > 100 µM (inactive) | – | > 100 µM (inactive) | > 100 µM (inactive) |
| CC(CN(C)C)/C(=N\Nc1ccccc1)c1ccccc1 (centres undefined) | 11.4 µM (inactive) | 2.02 µM (inactive) | – | 1.38 µM (inactive) | 0.0436 µM (active) | 0.419 µM (active) | 2.08 µM (inactive) | 0.499 µM (active) | 29.2 µM (inactive) | 0.0955 | 0.0456 µM (active) | 0.142 µM (active) | 0.794 µM (active) | 1.03 µM (active) | – | 1.46 µM (inactive) | 12.7 µM (inactive) | 0.184 µM (active) |
| Clc1ccccc1C(n1cc(Br)cn1)n1cc(Br)cn1 | 16.7 µM (inactive) | 40.7 µM (inactive) | 18.2 µM (inactive) | 11.4 µM (inactive) | 16.2 µM (inactive) | 14.7 µM (inactive) | 13.8 µM (inactive) | > 10 µM (inactive) | 17.1 µM (inactive) | > 10 | 17 µM (inactive) | > 10 µM (inactive) | > 100 µM (inactive) | – | > 10 µM (inactive) | 16.3 µM (inactive) | 19.3 µM (inactive) | 14.2 µM (inactive) |
| CC(=O)CC(=O)CCCC(=O)Nc1ccc(Cl)cc1Cl | – | > 100 µM (inactive) | > 100 µM (inactive) | > 100 µM (inactive) | > 100 µM (inactive) | > 100 µM (inactive) | > 100 µM (inactive) | > 100 µM (inactive) | – | > 100 | > 100 µM (inactive) | > 100 µM (inactive) | > 100 µM (inactive) | > 100 µM (inactive) | > 100 µM (inactive) | > 100 µM (inactive) | > 100 µM (inactive) | > 100 µM (inactive) |
| O=C(Nc1nc2ccc([N+](=O)[O-])cc2s1)C(=O)C(C(=O)c1ccncc1)C1OC(=O)c2ccccc21 (centres undefined) | > 100 µM (inactive) | – | – | > 100 µM (inactive) | – | > 100 µM (inactive) | > 100 µM (inactive) | > 100 µM (inactive) | 48.6 µM (inactive) | > 100 | – | > 100 µM (inactive) | > 100 µM (inactive) | > 100 µM (inactive) | > 100 µM (inactive) | > 100 µM (inactive) | > 100 µM (inactive) | > 100 µM (inactive) |
| Cc1ccc(S(=O)(=O)CC(=O)CC(=O)C(=O)Nc2cccc(C(F)(F)F)c2)cc1 | – | > 100 µM (inactive) | > 100 µM (inactive) | – | > 100 µM (inactive) | 97.1 µM (inactive) | 55.3 µM (inactive) | > 100 µM (inactive) | – | > 100 | > 100 µM (inactive) | > 100 µM (inactive) | – | – | > 100 µM (inactive) | > 100 µM (inactive) | – | > 100 µM (inactive) |
